Tests used:
[1] = Kinetic solubility in H2O at RT; settings: for pH / Form Change: H2O, RT; for Form Change: residual solids by XRPD
Protocol: (§1) Kinetic solubility of the Crystalline Form of Formula I and N-(4-(2,3-dihydro-1H-pyrrolo[2,3-b]pyridin-4-yloxy)-3-fluorophenyl)-5-(4-fluorophenyl)-4-oxo-1,4-dihydropyridine-3-carboxamide (the Compound of Formula II) was studied in H2O at RT. After stirring approximate 4 mg solid in per 2 mL H2O at RT for a set amount of time, 0.6 mL suspension was centrifuged with the residual solids analyzed by XRPD and the concentrations in supernatants measured by high performance liquid chromatography (HPLC).

[2] = Pharmacokinetic study, oral administration to fasted SD rats; settings: for AUC(0-inf) / AUC(0-t) / Cmax / Tmax / half-life: SD, rat, plasma, po, 50 mg/kg
Excerpt: (§2) The Compound of Formula II and the Crystalline Form of Formula I were ground to fine particles. The material content (purity) was not less than 99.0%. Sodium carboxymethyl cellulose was medical supply graded.
(§3) Experimental animals: SD rats were divided to a Compound of Formula II group and a Crystalline Form of Formula I group, with both groups consisting of three males and three females.
(§4) Pharmaceutical preparation: each compound was formulated in 0.5% (w/v) aqueous sodium carboxymethyl cellulose and the final concentration of each compound was 10 mg/mL.
(§5) Administration and sample collection: each suspension was administered orally to fasted SD rats at a dose equivalent to 50 mg/kg the Compound of Formula II in a dose volume of 5 mL/kg. The blood samples were collected in EDTA-K pre anticoagulant tubes just before dosing (0 h) and at 0.5, 1, 1.5, 2, 4, 6, 8 and 24 hrs after dosing. The plasma from these samples was separated by centrifugation at 3000 rpm for 10 min at 4° C. The plasma samples were collected and stored at −80° C. until analysis.
(§6) Samples were analyzed by HPLC. Chemical ingredients were separated on a C18 DIKMA Platisil column (250×4.6 mm, 5 μm). An Isocratic mobile phase system consisting of acetonitrile-water (55:45) with 0.02 mol/L of sodium dihydrogen phosphate (adjusted pH to 6.0 by using sodium hydroxide solution) employed for sample analysis. The sample injection volume was 20 μL and the detection wavelength was 302 nm.

[3] = Thermodynamic stability, stress test storage, XRPD; type: physicochemical; settings: 40° C.±2° C./RH75%±5%, aluminum-plastic composite film bag, 0 m, 1 m, 2 ms, 3 ms, or 6 ms
Protocol: About 500 g of the Crystalline Form of Formula I was placed into a bag of aluminum-plastic composite film, and the bag was stored under stress test conditions of 40° C.±2° C./RH75%±5% for 0 m, 1 m, 2 ms, 3 ms, or 6 ms.

[4] = Long term stability storage, XRPD; type: physicochemical; settings: 25° C.±2° C./RH60%±10%, aluminum-plastic composite film bag, 0 m to 36 ms
Protocol: About 500 g of the Crystalline Form of Formula I was placed into a bag of aluminum-plastic composite film, and the bag was stored under conditions of 25° C.±2° C./RH60%±10% for 0 m, 3 ms, 6 ms, 9 ms, 12 ms, 18 ms, 24 ms, or 36 ms.

[5] = physchem; settings: water, thermodynamic from solid
Protocol: as §1

[6] = in vivo; settings: SD, rat, po, 50 mg/kg
Excerpt: as §2, §3, §4, §5, §6

[7] = water, thermodynamic from solid

O=C(Nc1ccc(Oc2ccnc3c2CCN3)c(F)c1)c1c[nH]cc(-c2ccc(F)cc2)c1=O [The Compound of Formula II, N-(4-(2,3-dihydro-1H-pyrrolo[2,3-b]pyridin-4-yloxy)-3-fluorophenyl)-5-(4-fluorophenyl)-4-oxo-1,4-dihydropyridine-3-carboxamide]
pH ([1]; 1 h): 7.2
Form Change ([1]; 1 h): No
pH ([1]; 4 hrs): 7.3
Form Change ([1]; 4 hrs): No
pH ([1]; 24 hrs): 7.3
Form Change ([1]; 24 hrs): No
solubility kinetic at 1 h [1, 7]: 0.8 µg/mL
solubility kinetic at 4 h [1, 7]: 1.1 µg/mL
solubility kinetic at 24 h [1, 7]: 0.5 µg/mL
AUC(0-inf) ([2]; female): 18200 ± 4600 ng·h/mL
AUC(0-t) ([2]; female): 9700 ± 6300 ng·h/mL
Cmax ([2]; female): 1900 ± 1100 ng/mL
Tmax ([2]; female): 6 ± 2 h
half-life ([2]; female): 282 ± 222 min
AUC(0-inf) ([2]; male): 17100 ± 7000 ng·h/mL
AUC(0-t) ([2]; male): 10100 ± 2900 ng·h/mL
Cmax ([2]; male): 2200 ± 600 ng/mL
Tmax ([2]; male): 4.5 ± 2.6 h
half-life ([2]; male): 384 ± 156 min

O=C(Nc1ccc(Oc2ccnc3c2CCN3)c(F)c1)c1c[nH]cc(-c2ccc(F)cc2)c1=O.O=C(O)/C=C\C(=O)O [The Crystalline Form of Formula I, N-(4-(2,3-dihydro-1H-pyrrolo[2,3-b]pyridin-4-yloxy)-3-fluorophenyl)-5-(4-fluorophenyl)-4-oxo-1,4-dihydropyridine-3-carboxamide maleate]
Crystalline Form determined by XRPD after storage (thermodynamic stability) [3]: purely the Crystalline Form of formula I
pH ([1]; 1 h): 4.3
Form Change ([1]; 1 h): No
pH ([1]; 4 hrs): 4.1
Form Change ([1]; 4 hrs): No
pH ([1]; 24 hrs): 3.8
Form Change ([1]; 24 hrs): No
Crystalline Form determined by XRPD after storage (long term stability) [4]: purely the Crystalline Form of formula I
solubility kinetic at 1 h [5]: 59 µg/mL
solubility kinetic at 4 h [5]: 47.8 µg/mL
solubility kinetic at 24 h [5]: 98.3 µg/mL
Absorption compared with the Compound of Formula II ([2]; SD rats, oral, dose equivalent to 50 mg/kg the Compound of Formula II): higher absorption than the Compound of Formula II
AUC(0-inf) ([6]; female): 49300 ± 22200 ng·h/mL
AUC(0-t) ([6]; female): 46400 ± 21600 ng·h/mL
Cmax ([6]; female): 7500 ± 700 ng/mL
Tmax ([6]; female): 2 h
half-life ([6]; female): 222 ± 168 min
AUC(0-inf) ([6]; male): 17000 ± 6100 ng·h/mL
AUC(0-t) ([6]; male): 15900 ± 5100 ng·h/mL
Cmax ([6]; male): 3900 ± 700 ng/mL
Tmax ([6]; male): 2.7 ± 1.2 h
half-life ([6]; male): 102 ± 54 min

Source: patent US10577364B2, “Crystalline form of fused pyridine derivative's maleate and uses thereof” (priority 2015, dated 2020)
